The test system of experiment [1] is platelets. Particulars: cited from earlier work.
The subject of experiment [2] is human polymorphonuclear neutrophils. Particulars: properties associated with inflammatory processes; cited from earlier work.
The subject of experiment [3] is swiss 3T3 mouse fibroblast cells. The experiment is described as follows: Cell culture 3[H] thymidine assay, Example 6.3 inhibition of TPA induced proliferation (24 hours prior incubation with compound). Particulars: compound 24 hours before compound + 0.5µM TPA. The experiment is classed as cell-based. As to the method:
(§1) Cells used were swiss 3T3 mouse fibroblast cells • 1. 6 x 24 well plates were required for each experiment. • 2. Cells were removed from the standard tissue culture flask using a 1% solution of EDTA and resuspended in 10 ml of media and pipetted off into a falcon tube. • 3. The cells were then spun for 5 minutes at about 2,000rpm. • 4. The existing media was removed, and the cells again resuspended in 10ml of 10% foetal calf serum (FCS) and vortexed. • 5. The 10ml of suspension was then added to 140ml of media and mixed in a sterile jar. 1ml of the media cell suspension was then placed into each well and the plates incubated until confluent, three days .
(§2) • 1. [PCl]Cells were dosed with the test compounds (as specified below) 2 days prior to the addition of 3 [H]thymidine. The cells could only be dosed with a 0.5% solution, 5µl test solution in 1ml cellsuspension i.e. 5µl in 1ml, (TPA - 0.5µM). • 2. 0.5µl of 3[H] thymidine was added per well, therefore 72µl was added to 144µl of media (1%F.C.S.) to dose the corresponding six plates. • 3. 100µl of the media was taken to measure the measure the radioactive dose […], and added to 4ml of scintillation fluid. • 4. The radioactive media was then transferred to sterile specimen tubes and dosed with the test compounds before adding to the cells. • 5. After four hours ofbeing pulsed with radiolabelled thymidine (0.5µCi/ml) the media was removed and washed down the sink. • 6. The cells were washed twice with ice cold phosphate buffered saline (PBS), 0.5ml per well, and incubated for 30 min using ice cold 5% trichloroacetic acid (TCA) ( 1ml) per well at room temperature. • 8. The TCA was then removed and another 1ml of 5% TCA was added for 5 minutes. After the TCA was removed and 0.3NaOH and 0.1% sodium dodecyl sulphate added to each well for 30 minutes (1ml/well). • 9. The contents of each well was added to scintillation vials containing 4ml of scintillation fluid and each sample counted for four minutes using a scintillation counter. Three different assays were carried out using this protocol; • 6.1. Cytotoxicity testing of the compounds. After 48 hours of incubation and the cells were confluent a predetermined quantity of the test compounds was added to the cells. • 6.2. Inhibition of TPA induced proliferation. After 48 hours a preditermined quantity concentration of the test compounds was added to the cells as well as 0.5um of TPA. […] Inhibition of TPA induced proliferation. After 48 hours a predetermined quantity concentration of the test compounds was added to the cells for 24 hours, at 72 hours the media was changed again to contain both test compound and 0.5µM of the TPA. The objective of this experiment was to observe whether the prior incubation with the test compound had any effect on the TPA induced proliferation of the cells.

The test system is the same in experiment [4]. Kind of experiment: Cell culture 3[H] thymidine assay, Example 6.2 inhibition of TPA induced proliferation (compound added together with TPA). Particulars: with 0.5µM TPA. It counts as cell-based. The method, then: as §1, §2
Experiment [5] concerns Blood platelets. Kind of experiment: Inhibition of blood platelet aggregation (TPA or ADP induced) in platelet rich plasma. The experiment is classed as cell-based, human. Particulars: for Percentage Inhibition of TPA Induced Aggregation: TPA 0.5µg; for Percentage Inhibition of ADP Induced Aggregation: ADP 6.4 µg. The method, then: Blood platelets release inflammatory mediators in response to an external stimulus, which affect the proliferation of the cells, which is an important part of the disease psoriasis. • 1. Male human blood was collected via venipucture of the forearm directly in to anticoagulant buffer, from healthy donors who had denied any medication for two weeks, and centrifuged at 1000rpm for 20 minutes at room temperature. • 2. The supernatant was employed as platelet rich plasma (PRP). Platelet poor plasma (PPP) was obtained by centrifuging 1ml of PRP at 11,000 rpm for 10 minutes. • 3. Inhibition of platelet aggregation was tested by adding 2.5µl of a known concentration (containing 10µg or 50µg) of the test compound to a 500µl sample ofPRP for one minute. An aggregation agent was then added as a solution to the sample in a 2.5µl quantity (containing TPA 0.5,µg or ADP 6.4 µg). Aggregation was measured using a dual channel aggregometer . • 4. Aggregation was taken as the % change in light transmission compared to the maximum change produced by TPA or ADP plus the control solution. PRP was used as a standard for zero light transmission and PP for 100% light transmission.

Experiment [6] deals with swiss 3T3 mouse fibroblast cells. Kind of experiment: Cell culture 3[H] thymidine assay, Example 6.1 cytotoxicity testing (normal cell growth). Particulars: for Percentage Inhibition of 3T3 Swiss Fibroblast Growth, Example 6.1: cytotoxicity, no TPA. It counts as cell-based. The method, then: as §1, §2
Experiment [7] has as its system male Wistar rats. The experiment is described as follows: UV-B induced erythema (dermatitis) in rat, epidermal thickness and number of epidermal cell layers. The experiment is classed as in vivo. Particulars: five days; for No. of cells (epidermal proliferation as compared to the control, no treatment) / Thickness (epidermal thickening as compared to the control, no treatment): control = 100. As to the method: Rat UV-B induced dermatitis is characterised by a brownish red lesion with scab formation. Histologically, microvascular dilation, intraepidermal accumulation ofleukocytes and hyperproliferation of epidermal cells are all very similar to the symptoms of psoriasis in man (Nakaguma,H., Int. J.ofExp.Path, 76:65-73, 1995) • 1. Hair on the dorsal skin of male Wistar rats (180g) was clipped and shaved, whilst the rats were under anaesthesia, 24 hours prior to the experiment. • 2. The rats were covered by a black plastic sheeting, with two rectangular holes (about 1cm^2) cut out, thus allowing two exposure sites on the dorsal skin whilst protecting the rest of the animal. • 3. The rats were then exposed to UV-B light (302nm) at a distance of 10cm for six minutes and thirty seconds. The total W-B exposure was 2.4J/cm^2 as measured using a UV-X radiometer. • 4. The test compound was then placed onto one of the exposed areas and an unexposed area at a concentration of 100µg/5µl, in a suitable vehicle solution. • 5. Application of the test compound was repeated for five days. • 6. Histological post-mortem sections were taken on the fifth day, and stained using haematoxylin and eosin. The number ofepidermal cell layers and the epidermal thickness was counted and measured at random. Five animals were used per test group.

In experiment [8] the test system is Female CD1 mice. Kind of experiment: Topical chemical erythema: inhibition of TPA induced erythema on the mouse ear. The experiment is classed as in vivo. Particulars: for ED50 (dose required to inhibit erythema in at least 50% of the animals): applied to the right ear in 5µl, 20 minutes prior to TPA (0.1µg/5µl); for inhibition of chemically induced (TPA) erythema on the mouse ear, result in words: comparison among extracts or among the three chalcones. As to the method:
Ref. Williamson E.M. and Evans F. (1981), Inhibition of erythema induced by proinflammatory esters of 12-deoxyphorbol. Acta Pharmacol. Toxicol.,48, 47-52
Female CD1 mice, weighing approximately 20g were used. • 2. Test plant extracts as produced in Example 1 were applied externally to the right ear of each mouse, at predetermined concentrations in 5µl quantities, 20 minutes prior to the application of the irritant compound 12-O-tetradecanoylphorbal-13-acetate (TPA)(0.1µg/5µl). • 3. A […] response was indicated by redness and inflammation of the ear. • 4. Observations were recorded at 2,3,4,6,7, and 24 hours after the application of TPA. Maximum inflammation caused by TPA alone occurs at 6 hours after the application of TPA.
Erythema of the mouse ear is the simplest experiment to perform as mice have translucent ears in which reddening is easily visible. Quantification is subjective, however the erythema can be described as pronounced, slight or absent. • Isoliquiritigenin ED50 (dose required to inhibit erythema in at least 50% of the animals) 20-50,µg • Licochalcone B ED50 5-10µg • Echinatin ED50 5-10µg

Where [9] appears, read: Conc. 10µg test compound in 500µl PRP.
Where [10] appears, read: Conc. 50µg test compound in 500µl PRP.
[11] abbreviates: Active Compound Only, unexposed area, 100µg/5µl.
Where [12] appears, read: UV Exposure + Active Compound versus UV Exposure, 100µg/5µl.
The mark [13] stands for this setting: UV Exposure + Active Compound, 100µg/5µl topical.

Converted amounts (≈) assume the structure as drawn.

For `CCCCCCCCCCCCCC(=O)O[C@@H]1[C@@H](C)[C@@]2(O)[C@@H](C=C(CO)C[C@]3(O)C(=O)C(C)=C[C@@H]23)[C@@H]2C(C)(C)[C@]12OC(C)=O` [TPA, 12-O-tetradecanoylphorbol-13-acetate], the “concentration causing irreversible platelet aggregation” value in experiment [1] is given as 0.2 µM.
As to `COc1c(/C=C/C(=O)c2ccc(O)cc2)ccc(O)c1O` [Licochalcone B, licochalcone B], the “effect on degranulation in human polymorphonuclear neutrophils” value in experiment [2] is listed as “had an effect”. Besides, the “Percentage Inhibition of 3T3 Swiss Fibroblast Growth, Example 6.3” value in experiment [3] (Concentration 0.01 µg) was determined as 2%; in experiment [3] (Concentration 0.1 µg), 37%; in experiment [3] (Concentration 1 µg), 22%; in experiment [3] (Concentration 10 µg), 69%; in experiment [3] (Concentration 20 µg), 85%. Besides, the “Percentage Inhibition of 3T3 Swiss Fibroblast Growth, Example 6.2” value in experiment [4] (Concentration 0.01 µg) is recorded as “+26%”; in experiment [4] (Concentration 0.1 µg), 17%; in experiment [4] (Concentration 1 µg) it was 31%; in experiment [4] (Concentration 10 µg), 32%; in experiment [4] (Concentration 20 µg) it was 73%. Further, the “Percentage Inhibition of TPA Induced Aggregation” value in experiment [5] (setting [9]) came out at 4%; in experiment [5] (setting [10]) it was 13%. Besides, in experiment [5] (setting [10]), the “Percentage Inhibition of ADP Induced Aggregation” value stood at 15%. Moreover, the “Percentage Inhibition of 3T3 Swiss Fibroblast Growth, Example 6.1” value in experiment [6] (Concentration 0.01 µg) amounted to 16%; in experiment [6] (Concentration 0.1 µg), 13%; in experiment [6] (Concentration 1 µg) it was 41%; in experiment [6] (Concentration 10 µg), 55%; in experiment [6] (Concentration 20 µg), 86%. In addition, the “No. of cells (epidermal proliferation as compared to the control, no treatment)” value in experiment [7] (setting [11]) was 103%; in experiment [7] (setting [13]) it was 129%. The “Thickness (epidermal thickening as compared to the control, no treatment)” value in experiment [7] (setting [11]) turned out to be 96%; in experiment [7] (setting [13]) it was 135%. In addition, in experiment [7] (setting [12]), the “Percentage inhibition of epidermal proliferation (No. of cells, in brackets)” value was “(83) %”. In addition, the “Percentage inhibition of epidermal thickening (in brackets)” value in experiment [7] (setting [12]) was “(75) %”. In addition, in experiment [8], the “ED50 (dose required to inhibit erythema in at least 50% of the animals)” value fell in the range of 5 to 10 µg. Also, the “inhibition of chemically induced (TPA) erythema on the mouse ear, result in words” value in experiment [8] is “most effective”.
On to `COc1cc(O)ccc1/C=C/C(=O)c1ccc(O)cc1` [Echinatin, echinatin], for which the results for the “Percentage Inhibition of 3T3 Swiss Fibroblast Growth, Example 6.3” value in experiment [3] (Concentration 1 µg), in experiment [3] (Concentration 10 µg) and in experiment [3] (Concentration 20 µg) were 65%, 96% and 96%, respectively. Also, the figures for the “Percentage Inhibition of 3T3 Swiss Fibroblast Growth, Example 6.2” value in experiment [4] (Concentration 1 µg), in experiment [4] (Concentration 10 µg) and in experiment [4] (Concentration 20 µg) were 42%, 98% and 99%, respectively. The “Percentage Inhibition of ADP Induced Aggregation” value in experiment [5] (setting [9]) was determined as 13%; in experiment [5] (setting [10]), 14%. The “Percentage Inhibition of TPA Induced Aggregation” value in experiment [5] (setting [10]) was found to be 6%. Besides, the “Percentage Inhibition of 3T3 Swiss Fibroblast Growth, Example 6.1” value in experiment [6] (Concentration 1 µg) is listed as 85%; in experiment [6] (Concentration 1 µg, listed as echinatin) it was “up to 82%”; in experiment [6] (Concentration 10 µg), 94%; in experiment [6] (Concentration 20 µg), 99%. The compound also gave an EC50 in experiment [6] (Mus musculus, normal cell growth of 3T3 cells, exact value not established) of 0.1 to 1 µg/mL (≈ 0.37 to 3.7 µM). In addition, the “ED50 (dose required to inhibit erythema in at least 50% of the animals)” value in experiment [8] lay within 5 to 10 µg. Besides, the “inhibition of chemically induced (TPA) erythema on the mouse ear, result in words” value in experiment [8] is recorded as “most effective”.

The term EC50 denotes the midpoint of the concentration-response curve.

The record behind these values is patent publication EP0998939A1, “Chalcone plant extracts for use in therapy” (THE SCHOOL OF PHARMACY, UNIVERSITY OF LONDON, priority 1998, dated 2000).
